Blank lines part the entries; values can stand above or below the molecule they belong to.
Tests used:
Format in all cases: cell-based
[1] = molecular target: T1, MycN protein (Homo sapiens, UniProt P04198); test: Degradation of MycN protein, Western blot, SKNBE2 cells (Example 160)
T1 construct: either 2×10^6 of L-363 (human leukemia cell line) or SKNBE2 (neuroblastoma cell line) cells; endogenous in cells; host or cells: SKNBE2 / SK-N-BE(2) neuroblastoma cells
T1 sequence (P04198 1-464): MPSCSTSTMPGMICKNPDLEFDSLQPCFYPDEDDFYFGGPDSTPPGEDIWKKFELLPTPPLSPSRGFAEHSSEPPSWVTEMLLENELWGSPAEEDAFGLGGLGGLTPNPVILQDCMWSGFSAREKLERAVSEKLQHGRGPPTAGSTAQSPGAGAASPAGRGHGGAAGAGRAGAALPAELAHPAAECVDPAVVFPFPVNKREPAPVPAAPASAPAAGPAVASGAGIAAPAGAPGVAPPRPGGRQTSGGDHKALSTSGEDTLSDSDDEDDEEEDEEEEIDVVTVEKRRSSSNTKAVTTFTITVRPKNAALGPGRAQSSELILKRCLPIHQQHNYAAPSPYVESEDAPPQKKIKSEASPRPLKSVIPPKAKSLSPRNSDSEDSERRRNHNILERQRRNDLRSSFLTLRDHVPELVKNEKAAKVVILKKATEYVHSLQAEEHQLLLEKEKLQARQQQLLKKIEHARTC
Description: In a T150 flask was plated either 2×10^6 of L-363 (human leukemia cell line) or SKNBE2 (neuroblastoma cell line) cells in a total of 30 mL containing Roswell Park Memorial Institute (RPMI) 1640 Medium (Thermo Fisher, Cat. #11875-085), 10% Fetal Bovine Serum (FBS, Thermo Fisher: Cat. #10437-028), 1% Penicillin/streptomycin (Thermo Fisher: Cat. #10378016), and 1% Amophotericin B (Thermo Fisher, Cat. #15290026). The cells were split every 72 hours by reseeding the L-363 or SKNBE2 cells, and the passage number was noted. It is noteworthy that cell cultures that were above 40 passages were not used, and most experiments were done with cells of less than 30 passages.
In a 6-well cell culture plate, a total of 3 mL of either 1×10^6 cells/mL of L-363 or SKNBE2 cells were seeded, resulting in a total of 3×10^6 cells per well. To each well containing 3 mL of either L-363 or SKNBE2 cell line was added 6 uL of MycN modulating compound (1 mM) and the resulting plate was shaken from left to right, and not swirled. After 6 hours, the cells were placed in a 15 mL falcon tube and spun at 500 Gs at 4° C. in a swinging bucket centrifuge. The medium was then carefully removed without disturbing the pellet. The pellet was then washed with 3 mLs of chilled phosphate buffered saline (PBS) and subjected to the spin cycle. PBS was then removed and the pellet was lysed in 200 uL of radioimmunoprecipitation (RIPA) lysis buffer (Thermo Fisher: Cat. #899000) that is supplemented with protease and phosphatase inhibitors (Thermo Fisher: Cat. #A32959). The cell lysate was then subjected to spinning in a centrifuge for 10 minutes at 13000 G at 4° C. The supernatant was then carefully transferred to a fresh eppendorf tube without disturbing the pellet (˜180 uL). The protein concentration of the cell lysate was then determined by using a bicinchoninic acid (BCA assay) according to manufacturer's protocol (Thermo Fisher: Cat. #23227).
Cell lysate, approximately 25 ug-30 ug, was loaded per well in a 4-20% polyacrylamide gel (Biorad. Cat. #5671094). After running the dye front off of the gel, the gel was transferred to a nitrocellulose membrane (Biorad: Cat. #1704159) using the transblot turbo system (Biorad: Cat. #1704150) according to manufacturer's protocol. After transferring for 30 minutes, the membrane was blocked with 5% BSA for 1 hour at room temperature. The BSA was then washed off and the primary antibody of choice (1:500) was added, and the membrane was incubated with the primary antibody at 4° C. for overnight. The next morning, the primary antibody was removed and the membrane was washed with 1×-TBST for 10 minutes and repeated three more times. Following the last wash, a secondary antibody (Molecular Devices. Cat. #R8209 or R8208) was added at 1:5000 dilution and incubated for 1 hour at room temperature. Following the incubation with the secondary antibody, the membrane was washed with 1×-TBST for 10 minutes and repeated three more times. Following the last wash, the membrane was washed with de-ionized water twice and dried for at least two hours. Once the membrane is completely dry, the Molecular Devices Spectra Max western system was used to observe the bands. The western image was saved and the band density was measured with ImageJ software.

[2] = molecular target: T2, MycN protein (n-myc) (Homo sapiens, UniProt P04198); test: Degradation of MycN protein, 24 h treatment, JESS Western, SK-N-BE(2) cells (Example 161); conditions: SKNBE2 cells
T2 construct: either 2×10^6 of L-363 (human leukemia cell line) or SKNBE2 (neuroblastoma cell line) cells; endogenous in cells; host or cells: SKNBE2 / SK-N-BE(2) neuroblastoma cells
T2 sequence (P04198 1-464): T1 sequence (P04198 1-464)
Description: (§1) For L363 cells (suspension), 1E6 cells were plated into each well of a 6 well plate. For SK-N-BE(2) cells (adherent), 5E5 cells were plated into each well of a 6 well dish. […] All compounds were diluted to 10 mM in DMSO. Cells were treated with the compound for 24 hrs, then for both cell types, media containing cells were removed from wells into a 15 ml centrifuge tube, and remaining adherent SK-N-BE(2) cells were also scraped from the wells into the appropriate tubes. Tubes were centrifuged, cells were washed with PBS then re-centrifuged to pellet cells. A RIPA buffer cocktail was added to the cells on ice for 5 mins. Cell lysates were clarified by centrifugation and stored at −80 degrees until required. BCA assay was performed on each lysate to determine the protein concentration.
(§2) For validation studies of antibodies, lysates and antibodies were used at a number of concentrations (Lysates: 2, 1, 0.2 mg/ml; Antibodies: 1 in 50, 1 in 200 dilution). Once an appropriate lysate concentration and antibody concentration was determined, samples were screened in the JESS technology (Protein Simple, San Jose, CA—https://www.proteinsimple.com/jess.html).
(§3) Target protein antibodies (n-myc and c-myc) were detected in the chemi-luminescence channel and loading controls (tubulin and GAPDH) were detected using a Near Infra Red (NIR) labeled secondary antibody.
(§4) For SK-N-EB2 adherent cells, 5E5 cells in 1.9 mls media were plated into 6 well dishes and incubated for 24 hrs. […] Cells were scrapped off the plate, centrifuged, washed with PBS, centrifuged, then a RIPA buffer cocktail added to the cells (100 ul), centrifuged and stored at −80 for later analysis. For L363 suspension cells, 1E6 cells were plated into […] (950 ul media) and incubated for 24 hrs. […] Cells were aspirated into tubes, centrifuged, washed with PBS, centrifuged, then a RIPA buffer cocktail added to the cells (100 ul), centrifuged and stored at −80 for later analysis.
(§5) For Western blot, a BCA (total protein) assay was run on all samples, these were then run in batches of 5 compounds plus control (DMSO) on each Western blot run—n-myc and c-myc were run in separate experiments in the chemiluminescence channel. Both tubulin and GAPDH were run as loading controls in all lanes in the near infra red channel.

[3] = molecular target: T3, MycC protein (c-myc) (Homo sapiens, UniProt P01106); test: Degradation of MycC protein, 24 h treatment, JESS Western, L363 cells (Example 161); conditions: L-363 cells
T3 construct: either 2×10^6 of L-363 (human leukemia cell line) cells; endogenous in cells; host or cells: L-363 / L363 human leukemia cells
Description: as §1, §2, §3, §4, §5

T3 sequence (P01106 whole entry): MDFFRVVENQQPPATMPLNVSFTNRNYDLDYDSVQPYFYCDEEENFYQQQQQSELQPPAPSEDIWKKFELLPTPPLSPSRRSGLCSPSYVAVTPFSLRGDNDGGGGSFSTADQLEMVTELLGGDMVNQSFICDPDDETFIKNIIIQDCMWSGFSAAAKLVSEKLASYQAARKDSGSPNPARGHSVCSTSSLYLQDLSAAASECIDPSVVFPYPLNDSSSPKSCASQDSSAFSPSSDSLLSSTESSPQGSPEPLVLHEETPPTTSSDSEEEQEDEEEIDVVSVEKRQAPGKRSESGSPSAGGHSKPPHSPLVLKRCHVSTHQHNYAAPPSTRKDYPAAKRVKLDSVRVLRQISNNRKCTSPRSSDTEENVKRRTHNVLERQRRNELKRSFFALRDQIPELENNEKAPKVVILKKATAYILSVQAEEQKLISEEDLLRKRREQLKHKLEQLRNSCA

inhibition at 2 µM ([1]; SKNBE2, 6 h): 50 to 79%
Compound: CN(c1nccc(Nc2cc(C3CC3)[nH]n2)n1)[C@H]1CC[C@H](NC(=O)N2Cc3ccccc3C2)CC1 [Compound 11, N-((1R,4R)-4-((4-((5-cyclopropyl-1H-pyrazol-3-yl)amino)pyrimidin-2-yl)(methyl)amino)cyclohexyl)isoindoline-2-carboxamide]

inhibition at 0.5 µM ([2]; 0.5 μM): < 20% | inhibition at 1 µM [2]: 20 to 49% | inhibition at 3 µM [2]: 20 to 49% | inhibition at 6 µM [2]: 20 to 49%
Compound: COCCOCCN1CC2(CC(N(C)c3nccc(Nc4cc(C5CC5)[nH]n4)n3)C2)C1 [Compound 22, N4-(5-Cyclopropyl-1H-pyrazol-3-yl)-N2-(2-(2-(2-methoxyethoxy)ethyl)-2-azaspiro[3.3]heptan-6-yl)-N2-methylpyrimidine-2,4-diamine]

inhibition at 6 µM [3]: 80 to 100%
Compound: CN(c1nccc(Nc2cc(C3CC3)[nH]n2)n1)C1CC2(C1)CN(CC(=O)Nc1ccc(S(C)(=O)=O)cc1)C2 [Compound 24, 2-(6-((4-((5-Cyclopropyl-1H-pyrazol-3-yl)amino)pyrimidin-2-yl)(methyl)amino)-2-azaspiro[3.3]heptan-2-yl)-N-(4-(methylsulfonyl)phenyl)acetamide]

inhibition at 0.5 µM ([3]; 0.5 μM): 20 to 49% | inhibition at 1 µM ([3]; 1 μM): 20 to 49% | inhibition at 3 µM ([3]; 3 μM): < 20% | inhibition at 6 µM [3]: < 20%
Compound: CN1CCN(C(=O)CN2CC3(CC(N(C)c4nccc(Nc5cc(C6CC6)[nH]n5)n4)C3)C2)CC1 [Compound 30, 2-(6-((4-((5-Cyclopropyl-1H-pyrazol-3-yl)amino)pyrimidin-2-yl)(methyl)amino)-2-azaspiro[3.3]heptan-2-yl)-1-(4-methylpiperazin-1-yl)ethan-1-one]

inhibition at 1 µM [2]: < 20% | inhibition at 3 µM [2]: < 20% | inhibition at 6 µM [2]: < 20%
Compound: CN(c1nccc(Nc2cc(C3CC3)[nH]n2)n1)C1CC2(C1)CN(S(=O)(=O)c1cn3c(n1)CCCC3)C2 [Compound 36, N4-(5-Cyclopropyl-1H-pyrazol-3-yl)-N2-methyl-N2-(2-((5,6,7,8-tetrahydroimidazo[1,2-a]pyridin-2-yl)sulfonyl)-2-azaspiro[3.3]heptan-6-yl)pyrimidine-2,4-diamine]

inhibition at 2 µM ([1]; SKNBE2, 6 h): 50 to 79%
Compound: CN(c1nccc(Nc2cc(C3CC3)[nH]n2)n1)[C@H]1CC[C@H](NC(=O)C2Cc3ccccc3C2)CC1 [Compound 101, N-((1R,4R)-4-((4-((5-cyclopropyl-1H-pyrazol-3-yl)amino)pyrimidin-2-yl)(methyl)amino)cyclohexyl)-2,3-dihydro-1H-indene-2-carboxamide]

Compound: CN(c1nccc(Nc2cc(C3CCCC3)[nH]n2)n1)C1CCC(CC(=O)NC2Cc3ccc(C#N)cc3C2)CC1 (stereo not drawn) [Compound 102, N-(5-cyano-2,3-dihydro-1H-inden-2-yl)-2-(4-((4-((5-cyclopentyl-1H-pyrazol-3-yl)amino)pyrimidin-2-yl)(methyl)amino)cyclohexyl)acetamide]
inhibition at 2 µM ([1]; 6 h): 80 to 100%

inhibition at 2 µM ([1]; SKNBE2, 6 h): 50 to 79%
Compound: CN(c1nccc(Nc2cc(C3CCCC3)[nH]n2)n1)[C@H]1CC[C@H](NC(=O)Cc2cccc(C(F)(F)F)c2)CC1 [Compound 103, N-((1R,4R)-4-((4-((5-cyclopentyl-1H-pyrazol-3-yl)amino)pyrimidin-2-yl)(methyl)amino)cyclohexyl)-2-(3-(trifluoromethyl)phenyl)acetamide]

inhibition at 2 µM ([1]; SKNBE2, 6 h): 20 to 49%
Compound: CN(c1nccc(Nc2cc(C3CC3)[nH]n2)n1)[C@H]1CC[C@H](NC(=O)Cc2cccc(C(F)(F)F)c2)CC1 [Compound 104, N-((1R,4R)-4-((4-((5-cyclopropyl-1H-pyrazol-3-yl)amino)pyrimidin-2-yl)(methyl)amino)cyclohexyl)-2-(3-(trifluoromethyl)phenyl)acetamide]

inhibition at 2 µM ([1]; SKNBE2, 6 h): 50 to 79%
Compound: CN(c1nccc(Nc2cc(C3CCCC3)[nH]n2)n1)[C@H]1CC[C@H](NC(=O)C2Cc3ccccc3C2)CC1 [Compound 105, N-((1R,4R)-4-((4-((5-cyclopentyl-1H-pyrazol-3-yl)amino)pyrimidin-2-yl)(methyl)amino)cyclohexyl)-2,3-dihydro-1H-indene-2-carboxamide]

inhibition at 2 µM ([1]; SKNBE2, 6 h): 20 to 49%
Compound: CN(c1nccc(Nc2cc(C3CCCC3)[nH]n2)n1)[C@H]1CC[C@H](NC(=O)CC2Cc3ccccc3C2)CC1 [Compound 106, N-((1R,4R)-4-((4-((5-cyclopentyl-1H-pyrazol-3-yl)amino)pyrimidin-2-yl)(methyl)amino)cyclohexyl)-2-(2,3-dihydro-1H-inden-2-yl)acetamide]

inhibition at 2 µM ([1]; SKNBE2, 6 h): 50 to 79%
Compound: CN(c1nccc(Nc2cc(C3CC3)[nH]n2)n1)[C@H]1CC[C@H](NC(=O)c2cccc(C(F)(F)F)c2)CC1 [Compound 107, N-((1R,4R)-4-((4-((5-cyclopropyl-1H-pyrazol-3-yl)amino)pyrimidin-2-yl)(methyl)amino)cyclohexyl)-3-(trifluoromethyl)benzamide]

inhibition at 2 µM ([1]; SKNBE2, 6 h): 50 to 79%
Compound: CN(c1nccc(Nc2cc(C3CC3)[nH]n2)n1)[C@H]1CC[C@H](NC(=O)Cc2cccc(C#N)c2)CC1 [Compound 114, 2-(3-cyanophenyl)-N-((1R,4R)-4-((4-((5-cyclopropyl-1H-pyrazol-3-yl)amino)pyrimidin-2-yl)(methyl)amino)cyclohexyl)acetamide]

From US20230322722A1, “MODULATORS OF MYC FAMILY PROTO-ONCOGENE PROTEIN” (Nalo Therapeutics, priority 2020, published 2023)
